# In ChEMBL document CHEMBL5614443, “Hybrids of 3-Hydroxypyridin-4(1H)-ones and Long-Chain 4-Aminoquinolines as Potent Biofilm Inhibitors of Pseudomonas aeruginosa Potentiate Tobramycin and Polymyxin B Activity” (J Med Chem, 2024):
# Calls of active or inactive are those of the source. The rule behind the calls is not given here.
# Legend:
# [1] = test system: Pseudomonas aeruginosa; test: Antibacterial activity against Pseudomonas aeruginosa PAO1 assessed as inhibition of bacterial growth incubated for 24 hrs by CLSI protocol based method; format: functional
# [2] = test system: Pseudomonas aeruginosa; test: Antibiofilm activity against Pseudomonas aeruginosa PAO1 assessed as inhibition of biofilm formation incubated for 24 hrs by crystal violet staining based analysis; format: functional, organism-based; details: PAO1, 24 h
# [3] = test system: Pseudomonas aeruginosa; test: Antibacterial activity against Pseudomonas aeruginosa PAO1 assessed as bacterial survival rate at 1/2 MIC incubated for 24 hrs by LB agar plate method relative to control; format: functional
# [4] = test system: Pseudomonas aeruginosa; test: Antibacterial activity against Pseudomonas aeruginosa PAO1 infected in Caenorhabditis elegans assessed as reduction in worm mortality by measuring survival at 1/2 MIC by bright-field microscopic analysis (reference value: 24 hrs); format: functional
# [5] = test system: Pseudomonas aeruginosa; test: Induction of Fe3+ chelating activity in Pseudomonas aeruginosa PAO1 assessed as increase in pyoverdine production at 2.5 to 50 uM incubated for 24 hrs by fluorescence microplate reader; details: dose 2.5-50 µM
# [6] = Hemolytic activity in rabbit erythrocytes assessed as hemolysis rate at 200 uM incubated for 2 hrs by microplate reader analysis (reference value: 100 %); format: toxicity, cell-based, Oryctolagus cuniculus, Erythrocyte; details: read-out: Activity
# [7] = Cytotoxicity against African green monkey Vero cells assessed as reduction in cell viability incubated for 24 hrs by MTT assay; format: toxicity, cell-based; details: chlorocebus sabaeus
# [8] = Inhibition of quorum sensing system in wildtype Pseudomonas aeruginosa PAO1 assessed as inhibition of elastase production incubated for 24 hrs by elastin-congo red dye based absorbance assay
# [9] = Toxicity in Caenorhabditis elegans assessed as effect on survival at 100 uM measured at 48 hrs by bright-field microscopic analysis
# [10] = Inhibition of quorum sensing system in wildtype Pseudomonas aeruginosa PAO1 assessed as inhibition of pyocyanin production incubated for 24 hrs by absorbance based analysis
# [11] = test system: Pseudomonas aeruginosa; test: Induction of Fe3+ chelating activity in Pseudomonas aeruginosa PAO1 assessed as increase in pyochelin production at 2.5 to 50 uM incubated for 24 hrs by fluorescence microplate reader; details: dose 2.5-50 µM
# [12] = Inhibition of quorum sensing system in wildtype Pseudomonas aeruginosa PAO1 assessed as inhibition of rhamnolipid production incubated for 24 hrs by absorbance based microtiter plate reader analysis
# [13] = test system: Pseudomonas aeruginosa; test: Antibacterial activity against Pseudomonas aeruginosa PAO1 assessed as inhibition of bacterial growth at 0.1 to 50 uM measured upto 24 hrs by CLSI protocol based method; format: functional, organism-based; details: dose 0.1-50 µM
# [14] = test system: Pseudomonas aeruginosa; test: Antibiofilm activity against Pseudomonas aeruginosa PAO1 assessed as decrease in biofilm formation incubated for 24 hrs by LIVE/DEAD BacLight staining based 3D confocal laser scanning microscopy; format: functional, organism-based; details: dose 1-10 µM
# [15] = Metal chelating activity assessed as Fe3+ chelation by measuring iron chelation constant by fluorescence competition assay
Compound,MIC [1],IC50 [2],further results
Cc1cc(=O)c(O)c(CNCCCCCCNc2ccnc3cc(Cl)ccc23)n1C,≥ 512 µM,18.2 µM,
Cc1cc(=O)c(O)cn1CCCCCCCCNc1ccnc2ccccc12,≥ 512 µM,> 50 µM,
Cc1cc(=O)c(O)c(CNCCCCCCCCNc2ccnc3c(Cl)cccc23)n1C,≥ 512 µM,> 50 µM,
POLYMYXIN B,,,Survival [3]: 18%; Survival [4]: 88 h
Cc1cc(=O)c(O)c(CNCCCCCCCCNc2ccnc3ccc(Cl)cc23)n1C,≥ 512 µM,18.3 µM,
COc1ccc2c(NCCCCCCCCNC(=O)c3c(O)c(=O)cc(C)n3C)ccnc2c1,≥ 512 µM,> 50 µM,
NC[C@H]1O[C@H](O[C@H]2[C@H](O)[C@@H](O[C@H]3O[C@H](CO)[C@@H](O)[C@H](N)[C@H]3O)[C@H](N)C[C@@H]2N)[C@H](N)C[C@@H]1O [TOBRAMYCIN],,,Survival [3]: ~20%; Survival [4]: 72 h
COCCn1c(C)cc(=O)c(O)c1CNCCCCCCCCNc1ccnc2ccccc12,≥ 512 µM,> 50 µM,
Cc1cc(=O)c(O)c(CNCCCCCNc2ccnc3ccccc23)n1C,≥ 512 µM,> 50 µM,
CCn1c(C)cc(=O)c(O)c1CNCCCCCCCCNc1ccnc2ccccc12,≥ 512 µM,> 50 µM,
Cc1cc(=O)c(O)c(CNCCCCCCCCNc2ccnc3cc(C(F)(F)F)ccc23)n1C,≥ 512 µM,12.9 µM,
Cc1cc(=O)c(O)c(CNCCCCCCCCNc2ccnc3cc(F)ccc23)n1C,≥ 512 µM,> 50 µM,
NCCCCCCCCNc1ccnc2cc(Cl)ccc12,≥ 512 µM,> 50 µM,"Activity [5]: Active; hemolysis at 2 h, 200 µM [6]: < 1.5%; CC50 at 24 h [7]: 189 µM; IC50 [8]: 43.5 µM; Activity [9]: Toxic; IC50 [10]: > 50 µM; Activity [11]: Active; IC50 [12]: > 50 µM"
Cc1cc(=O)c(O)c(CNCCCCCCCCNc2ccnc3cc(Br)ccc23)n1C,≥ 512 µM,> 50 µM,
CC[C@H]1OC(=O)[C@H](C)[C@@H](O[C@H]2C[C@@](C)(OC)[C@@H](O)[C@H](C)O2)[C@H](C)[C@@H](O[C@@H]2O[C@H](C)C[C@H](N(C)C)[C@H]2O)[C@](C)(O)C[C@@H](C)CN(C)[C@H](C)[C@@H](O)[C@]1(C)O [AZITHROMYCIN],,6.6 µM,
CCCCCCCc1[nH]c2ccccc2c(=O)c1O,,,Activity [5]: Active
CCCCCn1c(C)cc(=O)c(O)c1CNCCCCCCCCNc1ccnc2ccccc12,≥ 512 µM,23.6 µM,
Cc1cc(=O)c(O)c(CNCCCCCCCCNc2ccnc3cccc(Cl)c23)n1C,≥ 512 µM,> 50 µM,
CCCn1c(C)cc(=O)c(O)c1CNCCCCCCCCNc1ccnc2ccccc12,≥ 512 µM,> 50 µM,
Cc1cc(=O)c(O)c(CNCCCCCCCCNc2ccnc3ccccc23)n1C,≥ 512 µM,8.1 µM,
Cn1cc(O)c(=O)cc1CNCCCCCCCCNc1ccnc2cc(Cl)ccc12,≥ 512 µM,> 50 µM,
Cc1cc(=O)c(O)cn1CCCCCCCCNc1ccnc2cc(Cl)ccc12,≥ 512 µM,25.6 µM,
Cc1cc(=O)c(O)c(CNCCCCCCCCNc2ccnc3cc(Cl)ccc23)n1C,≥ 512 µM,5.4 µM,Activity [13]: inactive; Activity [14]: Dose-Dependent Effect; IC50 [8]: 30.9 µM; IC50 [10]: 23.7 µM; IC50 [12]: > 50 µM

Compound,MIC [1],IC50 [2],further results
O=c1cc(CNCCCCCCCCNc2ccnc3ccccc23)n(O)cc1O,≥ 512 µM,> 50 µM,
Cc1cc(=O)c(O)c(CNCCCNc2ccnc3ccccc23)n1C,≥ 512 µM,> 50 µM,
CCCCCn1c(C)cc(=O)c(O)c1CNCCCCCCCCNc1ccnc2cc(Cl)ccc12,≥ 512 µM,> 50 µM,
CCCCn1c(C)cc(=O)c(O)c1CNCCCCCCCCNc1ccnc2ccccc12,≥ 512 µM,8.9 µM,
Cc1cc(=O)c(O)c(CNCCCCCCNc2ccnc3ccccc23)n1C,≥ 512 µM,16.2 µM,
COc1ccc2c(NCCCCCCCCNCc3c(O)c(=O)cc(C)n3C)ccnc2c1,≥ 512 µM,16 µM,
COc1ccc2c(NCCCCCCCCNCc3cc(=O)c(O)cn3C)ccnc2c1,≥ 512 µM,> 50 µM,
Cc1cc(=O)c(O)c(CNCCCCCCCCNc2ccncc2)n1C,≥ 512 µM,> 50 µM,
Cc1c(O)c(=O)ccn1C,,,pFe3+ [15]: 21.7
Cc1cc(=O)c(O)c(CNCCCCCCCCCCNc2ccnc3cc(Cl)ccc23)n1C,≥ 512 µM,> 50 µM,
Cc1cc(=O)c(O)c(C(=O)NCCCCCCCCNc2ccnc3ccccc23)n1C,≥ 512 µM,13 µM,
Cc1cc(=O)c(O)c(CNCCCCCCCNc2ccnc3cc(Cl)ccc23)n1C,≥ 512 µM,9.4 µM,
Cc1cc(=O)c(O)c(CNCCCCCCCNc2ccnc3ccccc23)n1C,≥ 512 µM,13.2 µM,
Cc1cc(=O)c(O)c(CNCCNc2ccnc3ccccc23)n1C,≥ 512 µM,> 50 µM,
O=c1cc(CNCCCCCCCCNc2ccnc3cc(Cl)ccc23)n(O)cc1O,≥ 512 µM,> 50 µM,
Cc1cc(=O)c(O)c(CNCCCCCCCCCCNc2ccnc3ccccc23)n1C,≥ 512 µM,32.6 µM,
Cc1cc(=O)c(O)c(CNCCCCCCCCNc2ccnc(Cl)c2)n1C,≥ 512 µM,> 50 µM,
CCCCn1c(C)cc(=O)c(O)c1CNCCCCCCCCNc1ccnc2cc(Cl)ccc12,≥ 512 µM,14.1 µM,
Cc1cc(=O)c(OCc2ccccc2)c(CNCCCCCCCCNc2ccnc3cc(Cl)ccc23)[nH]1,≥ 512 µM,> 50 µM,
Cn1cc(O)c(=O)cc1CNCCCCCCCCNc1ccnc2ccccc12,≥ 512 µM,> 50 µM,
Cc1cc(=O)c(OCc2ccccc2)c(C(=O)NCCCCCCCCNc2ccnc3cc(Cl)ccc23)n1C,≥ 512 µM,> 50 µM,Activity [5]: Active; Activity [11]: Active
Cc1cc(=O)c(O)c(CNCCCCNc2ccnc3ccccc23)n1C,≥ 512 µM,> 50 µM,
